Series [1] addresses T1, Cathepsin B (Homo sapiens, UniProt P07858). Nature of the series: Inhibition of human cathepsin B at 20 uM using Cbz-Phe-Arg-AMC as substrate relative to control.
Series [2] deals with T1, Cathepsin B. The experiment in a line: Inhibition of human cathepsin B assessed as second order rate constant using Cbz-Phe-Arg-AMC as substrate.
Series [3] deals with T2, Procathepsin L (Homo sapiens, UniProt P07711). Nature of the series: Inhibition of human cathepsin L at 20 uM using Cbz-Phe-Arg-AMC as substrate relative to control.
Target sequence in this assay (P07711 114-333 limits assumed): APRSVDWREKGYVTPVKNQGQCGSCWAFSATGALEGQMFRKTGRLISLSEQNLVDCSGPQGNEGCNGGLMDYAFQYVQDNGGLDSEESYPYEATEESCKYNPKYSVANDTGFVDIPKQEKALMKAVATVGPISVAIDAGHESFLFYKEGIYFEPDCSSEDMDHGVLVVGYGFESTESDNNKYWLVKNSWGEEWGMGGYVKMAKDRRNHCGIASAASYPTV
For series [4], the target named is T2, Procathepsin L. The experiment in a line: Inhibition of human cathepsin L assessed as second order rate constant using Cbz-Phe-Arg-AMC as substrate.
Target sequence in this assay (P07711 114-333 limits assumed): as above
In series [5] the target is T3, Falcipain 2 (Plasmodium falciparum) (UniProt Q9N6S8).
T3 sequence (whole entry): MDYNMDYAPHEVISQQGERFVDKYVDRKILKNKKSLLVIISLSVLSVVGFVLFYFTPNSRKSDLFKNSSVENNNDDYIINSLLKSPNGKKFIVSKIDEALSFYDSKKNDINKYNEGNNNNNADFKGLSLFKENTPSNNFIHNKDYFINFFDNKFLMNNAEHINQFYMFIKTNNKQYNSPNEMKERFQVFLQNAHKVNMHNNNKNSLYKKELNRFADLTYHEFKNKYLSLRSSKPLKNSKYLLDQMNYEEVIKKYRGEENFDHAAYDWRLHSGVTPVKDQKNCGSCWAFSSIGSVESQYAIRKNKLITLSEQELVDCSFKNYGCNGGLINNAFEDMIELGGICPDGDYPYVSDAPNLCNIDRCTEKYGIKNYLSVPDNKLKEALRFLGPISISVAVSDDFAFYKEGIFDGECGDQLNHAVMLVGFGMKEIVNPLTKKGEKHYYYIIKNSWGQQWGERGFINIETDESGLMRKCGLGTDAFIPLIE
The experiment in a line: Inhibition of Plasmodium falciparum falcipain-2 at 20 uM using Cbz-Phe-Arg-AMC as substrate measured for 15 mins by spectrofluorimetric method relative to control.

Another series deals with T4, Falcipain 2 (Plasmodium falciparum, UniProt Q9N6S8).
T4 sequence (Q9N6S8 whole entry): T3 sequence (whole entry)
Nature of the series: Inhibition of Plasmodium falciparum falcipain-2 using Cbz-Phe-Arg-AMC as substrate measured for 15 mins by spectrofluorimetric method.

Series [6] has as its target T3, Falcipain 2 (Plasmodium falciparum). Nature of the series: Inhibition of Plasmodium falciparum falcipain-2 assessed as second-order rate constant using Cbz-Phe-Arg-AMC as substrate measured for 15 mins by spectrofluorimetric method.
Series [7] addresses Rhodesain (Trypanosoma brucei rhodesiense) (UniProt Q95PM0). The experiment in a line: Inhibition of Trypanosoma brucei rhodesiense rhodesain at 20 uM using Cbz-Phe-Arg-AMC as substrate measured for 30 mins by fluorescence method relative to control.
Series [8] has the same target. Nature of the series: Inhibition of Trypanosoma brucei rhodesiense rhodesain assessed as second-order rate constant using Cbz-Phe-Arg-AMC as substrate measured for 30 mins by fluorescence method.
The target in series [9] is Cruzipain (Trypanosoma cruzi) (UniProt P25779). Nature of the series: Inhibition of Trypanosoma cruzi cruzain at 20 uM relative to control.
Chain of Cruzipain (Trypanosoma cruzi) (P25779 123-467 limits assumed): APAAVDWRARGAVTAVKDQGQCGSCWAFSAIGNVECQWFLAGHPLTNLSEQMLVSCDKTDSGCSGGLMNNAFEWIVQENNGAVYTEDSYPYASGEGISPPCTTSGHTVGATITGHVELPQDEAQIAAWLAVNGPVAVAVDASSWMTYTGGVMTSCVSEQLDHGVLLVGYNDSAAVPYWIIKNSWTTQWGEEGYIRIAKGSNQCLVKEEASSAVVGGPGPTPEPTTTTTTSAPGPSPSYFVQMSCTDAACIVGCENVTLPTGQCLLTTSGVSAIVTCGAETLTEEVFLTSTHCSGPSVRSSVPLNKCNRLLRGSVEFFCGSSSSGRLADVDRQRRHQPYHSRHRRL
Series [10] addresses T1, Cathepsin B. The experiment in a line: Inhibition of human cathepsin B using Cbz-Phe-Arg-AMC as substrate.
For series [11], the target named is T2, Procathepsin L. The experiment in a line: Inhibition of human cathepsin L using Cbz-Phe-Arg-AMC as substrate.
Target sequence in this assay (P07711 whole entry): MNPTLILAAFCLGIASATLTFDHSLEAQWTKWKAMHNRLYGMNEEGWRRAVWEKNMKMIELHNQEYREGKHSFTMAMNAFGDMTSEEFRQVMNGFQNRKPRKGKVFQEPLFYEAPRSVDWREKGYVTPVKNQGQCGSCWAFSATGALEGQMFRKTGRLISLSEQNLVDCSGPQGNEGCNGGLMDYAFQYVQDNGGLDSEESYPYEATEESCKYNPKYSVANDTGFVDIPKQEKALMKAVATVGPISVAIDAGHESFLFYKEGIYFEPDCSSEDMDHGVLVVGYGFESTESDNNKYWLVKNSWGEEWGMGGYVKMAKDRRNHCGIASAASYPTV
For the next series, the target named is Rhodesain (Trypanosoma brucei rhodesiense, UniProt Q95PM0). Nature of the series: Inhibition of Trypanosoma brucei rhodesiense rhodesain using Cbz-Phe-Arg-AMC as substrate measured for 30 mins by fluorescence method.
Chain of Rhodesain (Q95PM0 whole entry): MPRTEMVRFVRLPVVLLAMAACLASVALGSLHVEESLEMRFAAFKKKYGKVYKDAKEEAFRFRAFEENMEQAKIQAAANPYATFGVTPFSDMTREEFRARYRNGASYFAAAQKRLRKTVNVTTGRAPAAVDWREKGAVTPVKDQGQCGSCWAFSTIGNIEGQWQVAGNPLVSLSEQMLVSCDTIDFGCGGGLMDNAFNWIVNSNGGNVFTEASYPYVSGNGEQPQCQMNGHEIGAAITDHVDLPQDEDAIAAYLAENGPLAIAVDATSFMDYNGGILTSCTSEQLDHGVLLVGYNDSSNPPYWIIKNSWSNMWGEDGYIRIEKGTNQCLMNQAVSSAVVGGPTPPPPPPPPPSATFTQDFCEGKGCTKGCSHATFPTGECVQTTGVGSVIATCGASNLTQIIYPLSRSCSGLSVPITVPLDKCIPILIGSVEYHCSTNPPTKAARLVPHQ
In the next series the target is Cruzipain (Trypanosoma cruzi, UniProt P25779). Nature of the series: Inhibition of Trypanosoma cruzi cruzain.
Chain of Cruzipain (P25779 whole entry): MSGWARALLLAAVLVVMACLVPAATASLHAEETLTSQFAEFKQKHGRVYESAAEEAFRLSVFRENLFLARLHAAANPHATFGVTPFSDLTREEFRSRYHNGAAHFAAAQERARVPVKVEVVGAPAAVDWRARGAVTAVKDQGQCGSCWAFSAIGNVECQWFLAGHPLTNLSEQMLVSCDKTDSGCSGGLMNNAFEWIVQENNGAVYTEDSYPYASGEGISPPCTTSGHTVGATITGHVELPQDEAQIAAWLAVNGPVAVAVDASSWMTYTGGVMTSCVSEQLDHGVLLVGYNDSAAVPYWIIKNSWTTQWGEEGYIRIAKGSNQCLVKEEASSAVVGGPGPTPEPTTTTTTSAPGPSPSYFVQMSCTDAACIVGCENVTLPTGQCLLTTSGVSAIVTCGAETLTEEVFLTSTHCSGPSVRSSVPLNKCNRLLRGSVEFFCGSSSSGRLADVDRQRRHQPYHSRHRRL
Series [12] has as its target Cruzipain (Trypanosoma cruzi) (UniProt P25779). The experiment in a line: Inhibition of Trypanosoma cruzi cruzain assessed as second-order rate constant.
The test system of another series is Plasmodium falciparum. The experiment in a line: Antimalarial activity against erythrocytic stage of synchronized Plasmodium falciparum Dd2 after 48 hrs by Picogreen dye based fluorescence assay. The series is classed as functional, organism-based. Particulars: Dd2, 48 h.
Series [13] is described as follows: Cytotoxicity against human HepG2 cells assessed as cell viability at 1 uM measured after 24 hrs by spectrophotometric method relative to control. In kind it is cell-based. Particulars: read-out: Activity.

The record followed here is ChEMBL document CHEMBL4229471, “Antiprotozoal and cysteine proteases inhibitory activity of dipeptidyl enoates” (Bioorg Med Chem, 2018).

The inhibition is the change of the read-out against control, counted positive when it falls. A low value points to a response near the control. A word on the IC50: it is the concentration needed to halve the response being measured. Lower therefore signals inhibition by little substance.

Chain of Rhodesain (Trypanosoma brucei rhodesiense) (Q95PM0 1-450): as the sequence (Q95PM0 whole entry) above

As for `CCOC(=O)/C=C/[C@@H](O)[C@H](CCc1ccccc1)NC(=O)[C@H](Cc1ccccc1)NC(=O)OCc1ccccc1`, the inhibition worked out at 36% on Cathepsin B [1]; 57% at Procathepsin L [3]; 41% in series [5]; 63% in series [7]; 18% in series [9]. For the same molecule, the K on Cathepsin B [2] is 772 to 800 M⁻¹ s⁻¹; on Procathepsin L [4], 1100 M⁻¹ s⁻¹; in series [6], 557 M⁻¹ s⁻¹; in series [8], 3200 to 3210 M⁻¹ s⁻¹. At Falcipain 2, this molecule registered an IC50 of 34400 nM.

As to `CCOC(=O)/C=C/[C@H](O)[C@H](CCc1ccccc1)C(=O)N[C@@H](Cc1ccccc1)C(=O)OC`, the inhibition was found to be 0% on Cathepsin B [1], 0% against Procathepsin L [3], 9% in [5] and 4% in series [7].

`CCOC(=O)/C=C/C(=O)[C@@H](CC(C)C)NC(=O)[C@H](Cc1ccccc1)NC(=O)OCc1ccccc1`: the inhibition (against Cathepsin B [1]; against Procathepsin L [3]; in series [7]; in series [9]) was 100% each time. Further, the IC50 against Cathepsin B [10] was determined as 60 nM; against Procathepsin L [11] it was 10 nM; on Rhodesain, 30 nM; against Cruzipain it was 20 nM. Moreover, the K was 117000 M⁻¹ s⁻¹ at Cathepsin B [2], 704000 M⁻¹ s⁻¹ on Procathepsin L [4], 1.53e+06 M⁻¹ s⁻¹ in [8] and 312000 M⁻¹ s⁻¹ in series [12].

Regarding `CCOC(=O)/C=C/C(=O)[C@H](CC(C)C)NC(=O)[C@H](Cc1ccccc1)NC(=O)OCc1ccccc1`, the inhibition (on Cathepsin B [1]; on Procathepsin L [3]; in series [7]; in series [9]) was 100% throughout. The IC50 was 50 nM on Cathepsin B [10]; 10 nM against Procathepsin L [11]; 20 nM against Rhodesain; 20 nM on Cruzipain; 14900 nM in the series with Plasmodium falciparum. In addition, the K was 138000 M⁻¹ s⁻¹ on Cathepsin B [2], 759000 M⁻¹ s⁻¹ on Procathepsin L [4], 1.61e+06 M⁻¹ s⁻¹ in series [8] and 517000 M⁻¹ s⁻¹ in series [12]. Moreover, in series [13], the viability at 24 h, 1 µM was found to be 100%.

In the case of `CCOC(=O)/C=C/[C@H](O)[C@H](CCc1ccccc1)NC(=O)[C@H](Cc1ccccc1)NC(=O)OCc1ccccc1`, the inhibition on Cathepsin B [1] amounted to 35%; at Procathepsin L [3], 58%; in [5] it was 22%; in series [7], 32%; in series [9], 37%. Also, the half-maximal inhibitory concentration (IC50) was found to be 52600 nM against Cathepsin B [10] and 47000 nM on Procathepsin L [11]. Moreover, the figures for the K at Cathepsin B [2] and on Procathepsin L [4] were 14 M⁻¹ s⁻¹ and 77 M⁻¹ s⁻¹, respectively.

Take `CCOC(=O)/C=C/C(=O)[C@H](CC(C)C)NC(=O)[C@H](CC(C)C)NC(=O)N1CCOCC1`: the inhibition (at Cathepsin B [1]; against Procathepsin L [3]; in series [7]; in series [9]) was 100% each time. Also, the 50% inhibitory concentration (IC50) against Cathepsin B [10] is 90 nM; on Procathepsin L [11] it was 90 nM; at Rhodesain, 110 nM; against Cruzipain, 200 nM. For the same molecule, the K came to 49500 M⁻¹ s⁻¹ on Cathepsin B [2], 52200 M⁻¹ s⁻¹ on Procathepsin L [4], 324000 M⁻¹ s⁻¹ in series [8] and 10600 M⁻¹ s⁻¹ in [12].

Turning to `CCOC(=O)/C=C/[C@@H](O)[C@H](C)NC(=O)[C@H](Cc1ccccc1)NC(=O)OCc1ccccc1`, the inhibition against Cathepsin B [1] is 26%; on Procathepsin L [3], 80%; in series [5], 41%; in series [7] it was 63%; in series [9] it was 30%. Further, the K at Procathepsin L [4] worked out at 828 M⁻¹ s⁻¹; in [6], 2700 M⁻¹ s⁻¹; in series [8] it was 11000 M⁻¹ s⁻¹. Besides, the IC50 was 26800 nM at Falcipain 2 and 15100 nM at Rhodesain.

In the case of `CCOC(=O)/C=C/[C@@H](O)[C@H](CCc1ccccc1)NC(=O)[C@H](CC(C)C)NC(=O)OCc1ccccc1`, the inhibition against Cathepsin B [1] was 10%; against Procathepsin L [3] it was 14%; in [5], 11%; in series [7], 0%; in [9], 9%.

`CCOC(=O)/C=C/C(=O)[C@H](C)NC(=O)[C@H](CC(C)C)NC(=O)OCc1ccccc1`: the inhibition against Cathepsin B [1] was 100%; against Procathepsin L [3] it was 99%; in series [5] it was 98%; in series [7], 99%; in [9], 99%. Moreover, the K was 85500 M⁻¹ s⁻¹ on Cathepsin B [2]; 9800 M⁻¹ s⁻¹ at Procathepsin L [4]; 12000 M⁻¹ s⁻¹ in series [6]; 14200 M⁻¹ s⁻¹ in series [8]; 14400 M⁻¹ s⁻¹ in series [12]. For the same molecule, the IC50 against Procathepsin L [11] was 500 nM; at Falcipain 2, 1200 nM.

As to `CCOC(=O)/C=C/C(=O)[C@H](C)NC(=O)[C@H](Cc1ccccc1)NC(=O)OCc1ccccc1`, the inhibition on Cathepsin B [1] was 100%; at Procathepsin L [3], 100%; in series [5] it was 99%; in [7], 100%; in series [9] it was 100%. Also, the K at Cathepsin B [2] worked out at 47000 M⁻¹ s⁻¹; at Procathepsin L [4], 197000 M⁻¹ s⁻¹; in [6] it was 28300 M⁻¹ s⁻¹; in series [8] it was 6500 M⁻¹ s⁻¹; in series [12] it was 140000 M⁻¹ s⁻¹. The 50% inhibitory concentration (IC50) against Procathepsin L [11] is 80 nM; at Falcipain 2 it was 190 nM; against Cruzipain it was 300 nM.

In the case of `O=C(O)/C=C/[C@@H](O)[C@H](CCc1ccccc1)NC(=O)[C@H](Cc1ccccc1)NC(=O)OCc1ccccc1`, the inhibition is 15% against Cathepsin B [1]; 47% on Procathepsin L [3]; 24% in series [5]; 24% in series [7]; 12% in series [9]. Further, the K on Procathepsin L [4] worked out at 882 M⁻¹ s⁻¹; in series [6] it was 29 M⁻¹ s⁻¹. The molecule further yielded a half-maximal inhibitory concentration (IC50) against Falcipain 2 of 75000 nM.

Take `CCOC(=O)/C=C/[C@H](O)[C@H](CCc1ccccc1)C(=O)N[C@@H](Cc1ccccc1)C(=O)OCc1ccccc1`: the inhibition against Cathepsin B [1] is 25%; at Procathepsin L [3], 0%; in [5], 5%; in [7], 6%.

With `CCOC(=O)/C=C/[C@H](O)[C@H](CCc1ccccc1)C(=O)N[C@@H](CC(C)C)C(=O)OC`, the inhibition on Cathepsin B [1] stood at 0%; against Procathepsin L [3], 0%; in [5], 3%; in series [7], 1%.

In the case of `CCOC(=O)/C=C/[C@H](O)[C@H](CCc1ccccc1)C(=O)N[C@@H](CC(C)C)C(=O)OCc1ccccc1`, the inhibition at Cathepsin B [1] was found to be 17%; on Procathepsin L [3], 0%; in [5], 5%; in series [7] it was 2%.

On to `CCOC(=O)/C=C/[C@@H](O)[C@H](CCc1ccccc1)NC(=O)[C@H](Cc1ccccc1)NC(=O)N1CCOCC1`, for which the inhibition at Cathepsin B [1] came to 100%; at Procathepsin L [3], 98%; in [7], 99%; in series [9] it was 95%. The K at Cathepsin B [2] was 4190 to 4200 M⁻¹ s⁻¹; on Procathepsin L [4] it was 1900 M⁻¹ s⁻¹; in [8], 36700 M⁻¹ s⁻¹; in series [12] it was 3600 M⁻¹ s⁻¹.

`CCOC(=O)/C=C/C(=O)[C@H](CCc1ccccc1)NC(=O)[C@H](CC(C)C)NC(=O)N1CCOCC1`: the inhibition (against Cathepsin B [1]; against Procathepsin L [3]; in series [7]) was 100% each time. Also, the concentration for half-maximal inhibition (IC50) at Cathepsin B [10] was 140 nM; against Procathepsin L [11] it was 210 nM; against Rhodesain, 140 nM; against Cruzipain, 340 nM; with Plasmodium falciparum, 17700 nM. The K stood at 31400 M⁻¹ s⁻¹ on Cathepsin B [2], 19600 M⁻¹ s⁻¹ at Procathepsin L [4], 120000 M⁻¹ s⁻¹ in series [8] and 5600 M⁻¹ s⁻¹ in series [12]. In addition, the viability at 24 h, 1 µM in series [13] came to 100%.

For `O=C(/C=C/[C@@H](O)[C@H](CCc1ccccc1)NC(=O)[C@H](Cc1ccccc1)NC(=O)OCc1ccccc1)NCc1ccccc1`, the inhibition on Cathepsin B [1] is 9%; against Procathepsin L [3], 17%; in series [7], 1%; in series [9] it was 41%.
